This is an account of results in patent publication US11702415B2, “Crystalline hydrate of a JAK inhibitor compound” (THERAVANCE BIOPHARMA R&D IP, LLC, priority 2020, dated 2023).

A short description of one data set: Lung S9 metabolism. The class given is in vitro ADME, human. The conditions noted are these: for Compound Remaining at 60 min: human lung S9, 1 μM compound, 1 mg/mL protein, NADPH and PAPS; for Sulfate Appearance: human lung S9, qualitative, O-sulfate metabolite peak. The method, then:
The in vitro metabolic stability of compounds 1 and C-1 were evaluated in human lung S9 fraction (1 μM compound; 1 mg/mL S9 protein). The time 0, 15, 30, and 60 minute samples were analyzed for parent compound by high resolution LC-MS/MS. Lung S9 fractions from human (lot 1410245) were purchased from XenoTech LLC (Lenexa, Kans.). NADPH (Sigma Aldrich, N1630) and 3-phosphoadenosine 5-phosphosulfate (PAPS) (Sigma Aldrich, A1651) were purchased from Sigma Aldrich (St. Louis, Mo.). Acetonitrile and water were obtained from VWR (Radnor, Pa.) and were of HPLC grade or better. Raloxifene and formic acid was purchased from Sigma Aldrich (St. Louis, Mo.). Lung S9 incubations were performed in a water bath at 37° C. in a 96-well polypropylene plate. Lung S9 solutions consisted of 100 mM potassium phosphate buffered to pH 7.4 (BD Biosciences, Woburn, Mass.) supplemented with 1 mM NADPH (Sigma-Aldrich, St. Louis, Mo.), 3 mM magnesium chloride (Sigma Aldrich, M1028) and in the presence of 100 μM PAPS (Sigma-Aldrich, St. Louis, Mo.) cofactor, with final incubation protein concentrations of 1 mg/mL. 10 mM DMSO stocks of Raloxifene (n=1) and compound (n=1) were diluted in buffer and spiked into the incubations to yield 1 μM substrate concentrations ([…]). Incubation volumes consisted of 400 μL and time points were taken at 0, 15, 30, and 60 minutes by the removal of a 70 μL aliquot and dilution into 140 μL acetonitrile (0% formic acid). All samples were centrifuged at 2250 g for 10 minutes at 5° C. Supernatant (50 μL) was taken from the centrifuged samples and diluted into 100 μL HPLC water containing internal standard. The samples were run on a Dionex Ultimate 3000 Auto sampler and analyzed using a Thermo Q-Exactive High Resolution Mass Spectrometer (Thermo, Waltham, Mass.) in Full Scan mode in conjunction with an Atlantis T3 column 3 μM-2.1×50 mm (Waters Inc., 186003717). Mobile Phase A consisted of Water+0.2% formic acid and Mobile Phase B consisted of acetonitrile+0.2% formic acid. Peak integration was accomplished using Gubbs GMSU software (Gubbs Inc., Alpharetta, Ga.). For each sample, peak area ratios were calculated by dividing the analyte peak area by the internal standard peak area. For each incubation, the peak area ratios of the analytes in each t0 was set to 100%, and the peak areas ratios from the 60-minute samples were converted to percentages remaining relative to the corresponding t0. Determination of sulfate metabolite formation was made qualitatively by observation of early-eluting peak in the parent ion channel which, based on historical internal data, corresponded to the O-sulfate metabolite of each parent compound.

A short description of data set [1]: Pharmacokinetics in plasma and lung in mouse. The conditions noted are these: single oral aspiration, 0.2 mg/mL 50 μL. Type of data set: in vivo. The protocol:
Plasma and lung concentrations of test compound and ratio thereof were determined in the following manner. BALB/c mice from Charles River Laboratories were used in the assay. […] At various time points (typically 0.167, 2, 6, 24 hr) post dosing, blood samples were removed via cardiac puncture and intact lungs were excised from the mice.

Data set [2] deals with IL-13 induced pSTAT6 in lung tissue. The data set can be described thus: Murine model of IL-13 induced pSTAT6 induction in lung tissue. The conditions noted are these: mouse lung, oral aspiration 1 mg/mL 50 μL, IL-13 challenge 4 h after dose. Type of data set: in vivo. The protocol: IL-13 binds to cell surface receptors activating members of the Janus family of kinases (JAK) which then phosphorylate STAT6 and subsequently activates further transcription pathways. In the described model, a dose of IL-13 was delivered locally into the lungs of mice to induce the phosphorylation of STAT6 (pSTAT6) which is then measured as the endpoint.
Activity in the model is evidenced by a decrease in the level of pSTAT6 present in the lungs of treated animals at 5 hours compared to the vehicle treated, IL-13 challenged control animals. The difference between the control animals which were vehicle-treated, IL-13 challenged and the control animals which were vehicle-treated, vehicle challenged dictated the 0% and 100% inhibitory effect, respectively, in any given experiment.

Data set [3] is described as follows: Stability study at accelerated temperature and relative humidity (HPLC). Type of data set: physicochemical. The conditions noted are these: samples of Form I.
The nature of data set [4]: Dynamic moisture sorption assessment. Type of data set: physicochemical. The method, then: Dynamic moisture sorption (DMS) measurement was performed using a VTI atmospheric microbalance, SGA-100 system (VTI Corp., Hialeah, Fla. 33016). A weighed sample was used and the humidity was lowest possible value (close to 0% RH) at the start of the analysis. The DMS analysis consisted of an initial drying step (˜0% RH) for 16 hours, followed by two cycles of sorption and desorption with a scan rate of 5% RH/step over the humidity range of 5% RH to 90% RH. The DMS run was performed isothermally at 25° C.

The test system of data set [5] is hospitalized patients with COVID-19. The conditions noted are these: in combination with remdesivir versus placebo with remdesivir, within 29 days after initiating treatment; cited from earlier work.
Data set [6] concerns patients with steroid-refractory acute or chronic GVHD. The conditions noted are these: 95 patients, salvage therapy, including lung GVHD; cited from earlier work.

For the compound `CCc1cc(O)ccc1-c1ccc2c(-c3nc4c([nH]3)CN(C(C)C)[C@H](C(=O)N3CC(N(C)C)C3)C4)n[nH]c2c1` [Compound 1, (S)-(3-(dimethylamino)azetidin-1-yl)(2-(6-(2-ethyl-4-hydroxyphenyl)-1H-indazol-3-yl)-5-isopropyl-4,5,6,7-tetrahydro-3H-imidazo[4,5-c]pyridin-6-yl)methanone], the “sulfation metabolism compared to fluoro analog C-1” value in the data set “Lung S9 metabolism” (human lung S9) is on record as “significantly less sulfation metabolism”. Moreover, the “Compound Remaining at 60 min” value in the data set “Lung S9 metabolism” was found to be 81%. The “Sulfate Appearance” value in the data set “Lung S9 metabolism” is “Yes”. Further, the “Lung Tissue AUC(0-24)” value in data set [1] was 54.5 µg·h/g. For the same compound, the “pSTAT6 inhibition at 5 hours” value in data set [2] was determined as 75. Besides, the “Compound 1 content by HPLC” value in data set [3] (T = 0) was 97.5% a/a; in data set [3] (T = 1 month, 40° C./75% RH), 97.5% a/a; in data set [3] (T = 3 month, 25° C./60% RH), 97.6% a/a; in data set [3] (T = 3 month, 40° C./75% RH), 97.5% a/a.

As to `CCc1cc(O)c(F)cc1-c1ccc2c(-c3nc4c([nH]3)CN(C(C)C)[C@H](C(=O)N3CC(N(C)C)C3)C4)n[nH]c2c1` [Compound C-1, (S)-(3-(dimethylamino)azetidin-1-yl)(2-(6-(2-ethyl-5-fluoro-4-hydroxyphenyl)-1H-indazol-3-yl)-5-isopropyl-4,5,6,7-tetrahydro-3H-imidazo[4,5-c]pyridin-6-yl)methanone, reference compound], in the data set “Lung S9 metabolism”, the “Compound Remaining at 60 min” value is 6% and the “Sulfate Appearance” value was “Yes”.

For the compound `CCc1cc(O)ccc1-c1ccc2c(-c3nc4c([nH]3)CN(C(C)C)[C@H](C(=O)N3CC(N(C)C)C3)C4)n[nH]c2c1` [Form I, (S)-(3-(dimethylamino)azetidin-1-yl)(2-(6-(2-ethyl-4-hydroxyphenyl)-1H-indazol-3-yl)-5-isopropyl-4,5,6,7-tetrahydro-3H-imidazo[4,5-c]pyridin-6-yl)methanone hydrate Form I], the hygroscopicity result in data set [4] (dynamic moisture sorption, 25° C.) was “moderately hygroscopic”. In data set [4] (relative humidity between 0% and 90% at room temperature), the total moisture uptake entry is listed as “about 5.3%”.

As for `CCS(=O)(=O)N1CC(CC#N)(n2cc(-c3ncnc4[nH]ccc34)cn2)C1` [baricitinib], the time to recovery entry in data set [5] was “reduce time to recovery”.

Take `N#CC[C@H](C1CCCC1)n1cc(-c2ncnc3[nH]ccc23)cn1` [ruxolitinib]: the “clinical response in GVHD patients” value in data set [6] is on record as “complete or partial response to ruxolitinib in the majority of patients”.
